In paper PMC10787893, “Expression and characterization of the new antimicrobial peptide AP138L-arg26 anti Staphylococcus aureus” (Applied Microbiology and Biotechnology, 2024):
In brackets after ≈: the same amount, converted by molar mass. Where two headings read alike, the source gives them in different places. Bridge positions count the residues as written; N and C are the ends. Peptide text beside a SMILES is read from it.

What was measured:
[1] = test system: S. aureus CVCC 546; assay: Artificial gastric juice stability, MIC after treatment; format: in vitro ADME, Staphylococcus aureus
[2] = test system: intracellular S. aureus CVCC 546 in mouse macrophages RAW264.7 and bovine endometrial epithelial cells BNCC359233; assay: Intracellular antibacterial activity; format: cell-based, Staphylococcus aureus; conditions: 5 × MIC; n = 3
Source text: The method of intracellular bactericidal effect was described previously (Wang et al. [2018]). Only the number of cells and bacteria changed from 2.5 × 10^5 to 2 × 10^5 cells/mL.

[3] = test system: Staphylococcus aureus CVCC 546; assay: MIC and MBC, broth microdilution; format: cell-based
Description: (§1) To determine the MIC values of AP138L-arg26, we used the broth microdilution technique as previously described (Andrews. [2001]; Wiegand et al. [2008]). In brief, AP138L-arg26 peptide were diluted from 1280 to 2.5 µg/mL and added to a 96-cells plate with 10 µL per well. The bacteria in the logarithmic stage were diluted to 10^5 CFU/mL with 90 µL per well. […] The MBC method was also based on the CLSI 2021 guidelines.

[4] = test system: Staphylococcus aureus CAAS-FRI-2023-01; assay: MIC and MBC, broth microdilution; format: cell-based
Description: as §1

[5] = test system: Streptococcus dysgalactiae CVCC 3938; assay: MIC and MBC, broth microdilution; format: cell-based
Description: as §1

[6] = test system: Staphylococcus aureus E48; assay: MIC and MBC, broth microdilution; format: cell-based
Description: as §1

[7] = test system: Staphylococcus aureus CAAS-FRI-2023-02; assay: MIC and MBC, broth microdilution; format: cell-based
Description: as §1

[8] = test system: Staphylococcus epidermidis ATCC 35984; assay: MIC and MBC, broth microdilution; format: cell-based
Description: as §1

[9] = test system: Streptococcus agalactiae CAU-FRI-2022-01; assay: MIC and MBC, broth microdilution; format: cell-based
Description: as §1

[10] = test system: Streptococcus agalactiae CAU-FRI-2022-02; assay: MIC and MBC, broth microdilution; format: cell-based
Description: as §1

[11] = test system: Staphylococcus aureus ATCC 43300; assay: MIC and MBC, broth microdilution; format: cell-based
Description: as §1

[12] = test system: Streptococcus agalactiae ATCC 13813; assay: MIC and MBC, broth microdilution; format: cell-based
Description: as §1

[13] = test system: Staphylococcus epidermidis ATCC 12228; assay: MIC and MBC, broth microdilution; format: cell-based
Description: as §1

[14] = test system: Staphylococcus aureus ATCC 25923; assay: MIC and MBC, broth microdilution; format: cell-based
Description: as §1

[15] = test system: S. aureus CVCC 546; conditions: for FIC: FIC = MICc/MICa
Description: The synergistic effects of AP138L-arg26 with different antibiotics were evaluated using a checkerboard assay. The synergistic effect was calculated using the FICI as follows: FICI = FIC of AP138L-arg26 + FIC of antibiotic; FIC = MICc/MICa, where MICc is the MIC of the peptide and antibiotic in combination, and MICa is the MIC of the peptide/antibiotic alone (Blier et al. [2010]). Three parallel experiments were performed for each group. The efficacy of combination therapy was defined as FICI ≤ 0.5, 0.5 < FICI ≤ 1, 1 < FICI ≤ 4, and FICI > 4 indicating synergy, addition, no difference, and antagonism, respectively.

[16] = test system: S. aureus CVCC 546; assay: Growth curve of S. aureus; format: cell-based, Staphylococcus aureus; conditions: AP138L-arg26 8 µg/mL (2 × MIC), ceftiofur sodium 0.25 µg/mL (1/8 MIC), alone or combined; 1 × 10^5 CFU/mL
Description: Samples were taken during the logarithmic growth of S. aureus and diluted to 1 × 10^5 CFU/mL (Delpech et al. [2019]). Different concentrations of AP138L-arg26, ceftiofur sodium, or a combination of them with an equal volume of bacteria were added to a 96-well microplate. The growth curves were recorded using a fully automatic growth curve recording instrument.

[17] = test system: S. aureus; assay: Membrane fluidity assay, Laurdan GP; format: cell-based, Staphylococcus aureus; conditions: 2 × MIC; 10 µM Laurdan; untreated 0.22
Description: The final concentration of 10 µM Laurdan was used to detect the effect of AP138L-arg26 on bacterial cell membrane fluidity (Shi et al. [2022]). Briefly, (1) co-incubation of bacteria with Laurdan; (2) the stained bacteria are co-incubated with the peptide; (3) spectrophotometer (Tecan, Männedorf, Switzerland) detection. The calculation formula: generalized polarization (GP) = (I435 − I490)/(I435 + I490).

[18] = test system: S. aureus; assay: Intracellular LDH activity; format: cell-based, Staphylococcus aureus; conditions: 6 h, treated cells/the control, n = 3
Description: As disruption of the cell membrane structure leads to the release of LDH from the cytoplasm into the culture medium, the detection of LDH in bacteria can further reveal the antibacterial mechanism (Shi et al. [2022]). Briefly, S. aureus cells were co-incubated with AP138L-arg26 for 6 h. Later, the pellets were collected and sonicated (3 s/10 s, 30 times). The intracellular LDH activity was detected using an Infinite M200 Microplate reader (Tecan, Luminescence signals). The calculated results of LDH% = treated cells/the control.

[19] = test system: S. aureus CVCC 546; assay: SYTO9/PI membrane integrity assay; format: cell-based, Staphylococcus aureus; conditions: 2 × MIC, 37 °C, 1 h; 1 × 10^9 CFU/mL; fluorescence microscopy
Source text: To explore the disruption of bacterial cell membranes by the AP138L-arg26, a SYTO9/PI kit was used to detect the integrity of cell membranes (L7007 LIVE/DEAD^R BacLight™ Bacerial Viability Kits). The unique feature of this kit is that SYTO9 alone can pass through integral cell membranes, while PI can only penetrate damaged cell membranes. […] Finally, the results were observed using fluorescence microscopy.

[20] = test system: S. aureus CVCC 546; assay: Thermal stability, MIC after treatment; format: physicochemical, Staphylococcus aureus
[21] = 99.99% of bacteria killed, plated on MHA
[22] = broth microdilution, 10^5 CFU/mL, 37 °C, 18 h

For CC[C@H](C)[C@@H]1NC(=O)[C@H](CO)NC(=O)[C@H](CCCCN)NC(=O)[C@@H]2CSSC[C@@H](C(=O)N[C@@H](Cc3ccc(O)cc3)C(=O)O)NC(=O)[C@H](CCCCN)NC(=O)[C@@H]3CSSC[C@H](NC(=O)[C@H](CCCNC(=N)N)NC(=O)[C@H](CC(C)C)NC(=O)[C@H](CC(=O)O)NC(=O)[C@H](CC(=O)O)NC(=O)[C@H](CCC(=O)O)NC(=O)[C@H](CO)NC(=O)[C@H](Cc4c[nH]c5ccccc45)NC(=O)[C@@H]4CCCN4C(=O)CNC(=O)[C@H](CC(N)=O)NC(=O)[C@@H](NC(=O)CNC(=O)[C@H](Cc4ccccc4)NC(=O)CN)CSSC[C@H](NC(=O)[C@H](Cc4ccc(O)cc4)NC(=O)CNC(=O)CNC(=O)[C@H](CCCNC(=N)N)NC(=O)[C@H](Cc4ccc(O)cc4)NC(=O)CNC(=O)[C@H](CCCCN)NC1=O)C(=O)N[C@@H](C)C(=O)N[C@@H](CCCCN)C(=O)NCC(=O)NCC(=O)N[C@@H](Cc1ccccc1)C(=O)N[C@@H](C(C)C)C(=O)N3)C(=O)N[C@@H](Cc1c[nH]cn1)C(=O)N[C@@H](CCCNC(=N)N)C(=O)N[C@@H](Cc1c[nH]cn1)C(=O)N2 [AP138L-arg26] (H-GFGCNGPWSEDDLRCHRHCKSIKGYRGGYCAKGGFVCKCY-OH; disulfide 4-30, 15-37, 19-39; N-terminus and C-terminus assumed), the “antimicrobial activity after gastric juice” value ([1]; artificial gastric juice, MIC assay) was “unaffected”, the “MIC, Gastric juice (0.25 h)” value ([1]; peptide in artificial gastric juice for 0.25 h, then MIC assay) was 4 µg/mL (≈ 0.898 µM) and the “MIC, Gastric juice (0.5 h)” value ([1]; peptide in artificial gastric juice for 0.5 h, then MIC assay) was 4 µg/mL (≈ 0.898 µM). For the same molecule, the “MIC, Gastric juice (1 h)” value ([1]; peptide in artificial gastric juice for 1 h, then MIC assay) was 4 µg/mL (≈ 0.898 µM), the “MIC, Gastric juice (2 h)” value ([1]; peptide in artificial gastric juice for 2 h, then MIC assay) was 8 µg/mL (≈ 1.8 µM) and the intracellular bacteria killed [2] was “more than 70%”. The MBC [3, 21] was 32 µg/mL (≈ 7.18 µM), the MIC [3, 22] was 4 µg/mL (≈ 0.898 µM) and the MBC [4, 21] was 16 µg/mL (≈ 3.59 µM). For the same molecule, the MIC [4, 22] was 4 µg/mL (≈ 0.898 µM), the MBC [5, 21] was 32 µg/mL (≈ 7.18 µM) and the MIC [5, 22] was 4 µg/mL (≈ 0.898 µM). The MBC [6, 21] was 8 µg/mL (≈ 1.8 µM), the MIC [6, 22] was 2 µg/mL (≈ 0.449 µM) and the MBC [7, 21] was 32 µg/mL (≈ 7.18 µM). It also gave an MIC [7, 22] of 8 µg/mL (≈ 1.8 µM), an MBC [8, 21] of 16 µg/mL (≈ 3.59 µM) and an MIC [8, 22] of 8 µg/mL (≈ 1.8 µM). It also gave an MBC [9, 21] of 32 µg/mL (≈ 7.18 µM), an MIC [9, 22] of 4 µg/mL (≈ 0.898 µM) and an MBC [10, 21] of 32 µg/mL (≈ 7.18 µM). It also gave an MIC [10, 22] of 4 µg/mL (≈ 0.898 µM), an MBC [11, 21] of 8 µg/mL (≈ 1.8 µM) and an MIC [11, 22] of 8 µg/mL (≈ 1.8 µM). For the same molecule, the MBC [12, 21] was 8 µg/mL (≈ 1.8 µM), the MIC [12, 22] was 4 µg/mL (≈ 0.898 µM) and the MBC [13, 21] was 16 µg/mL (≈ 3.59 µM). It also gave an MIC [13, 22] of 4 µg/mL (≈ 0.898 µM), an MBC [14, 21] of 32 µg/mL (≈ 7.18 µM) and an MIC [14, 22] of 16 µg/mL (≈ 3.59 µM). The FIC ([15]; combination AP138L-arg26-Streptomycin sulfate) was 0.5, the FIC ([15]; combination AP138L-arg26-ampicillin) was 1 and the FIC ([15]; combination AP138L-arg26-ceftiofur sodium) was 0.0625. It also gave an MICa ([15]; MIC of peptide/antibiotic alone, three parallel experiments) of 4 µg/mL, an MICc ([15]; in combination AP138L-arg26-Streptomycin sulfate) of 2 µg/mL and an MICc ([15]; in combination AP138L-arg26-ampicillin) of 4 µg/mL. The MICc ([15]; in combination AP138L-arg26-ceftiofur sodium) was 0.25 µg/mL, the “effect on the growth of S. aureus CVCC 546” value [16] was “little effect on the growth” and the “Laurdan GP” value [17] was 0.18. It also gave an LDH activity % ([18]; 1 × MIC) of 24%, an LDH activity % ([18]; 2 × MIC) of 16% and an LDH activity % ([18]; 4 × MIC) of 16%. The “cells stained red by PI” value [19] was “more than 50%”, the “MIC, Heat (20 °C)” value ([20]; peptide incubated at 20 °C for 1 h, then MIC assay) was 8 µg/mL (≈ 1.8 µM) and the “MIC, Heat (40 °C)” value ([20]; peptide incubated at 40 °C for 1 h, then MIC assay) was 8 µg/mL (≈ 1.8 µM). The “MIC, Heat (60 °C)” value ([20]; peptide incubated at 60 °C for 1 h, then MIC assay) was 8 µg/mL (≈ 1.8 µM), the “MIC, Heat (80 °C)” value ([20]; peptide incubated at 80 °C for 1 h, then MIC assay) was 8 µg/mL (≈ 1.8 µM) and the “MIC, Heat (100 °C)” value ([20]; peptide incubated at 100 °C for 1 h, then MIC assay) was > 64 µg/mL. The “MIC, Control (without treatment)” value ([20]; peptide without treatment, reference value of the stability tests) was 8 µg/mL (≈ 1.8 µM).
